Test results as given in paper PMC6316436, “Design of Linear and Cyclic Mutant Analogues of Dirucotide Peptide (MBP82–98) against Multiple Sclerosis: Conformational and Binding Studies to MHC Class II” (Brain Sciences, 2018).
“Also recorded” adds a separate entry of the source. Where two headings read alike, the source gives them in different places. Ends that are not written are not given here.

Tests used:
HLA-DR2 = assay: Competition binding of MBP82–98 analogues to HLA-DR2 (AMCA-labeled MBP83–99 competitor); parameters: species or system human; conditions: 37 °C; for binding affinity to HLA-DR2 (competition), in words: triplicates
HLA-DR4 = assay: Competition binding of MBP82–98 analogues to HLA-DR4 (AMCA-labeled HA306–318 competitor); parameters: species or system human; conditions: 37 °C; for binding to HLA-DR4, overall statement: competition with AMCA-labeled HA306–318, 48 h, pH 6.0
[1] = tested on: patients with relapsing remitting MS and secondary progressive MS; conditions: phase III, cited from earlier work
From the text: (§1) Dirucotide is licensed to BioMS Medical Corp and shared the development with Eli Lilly and Company. […] As a result, further planned/scheduled clinical trials were terminated. […] It is likely that ...

patients with MS = conditions: ref [16], cited from earlier work
From the text: as §1

[2] = tested on: CD4^+CD25^+Foxp3^+ regulatory T cells; conditions: ref [18], cited from earlier work
From the text: as §1

autoreactive T cells = conditions: intravenous injections, preclinical and clinical studies; ref [15]; cited from earlier work
From the text: Dirucotide is licensed to BioMS Medical Corp and shared the development with Eli Lilly and Company. […] Thus, in the populat ...

[3] = tested on: experimental autoimmune encephalomyelitis (EAE); conditions: compared to linear PLP139–151 peptide; ref [30]; cited from earlier work
From the text: The cyclization of peptides is of great interest, since the partial stability of linear peptides restricts them as potential therapeutics. We have extensively studied cyclic peptides for their enhanced stability and their potential to be used as immunotherapeutics in MS due to their altered three-dimensional conformation. […] Similarly, cyclization of the agonist proteolipid protein (PLP139–151) epit ...

[4] = phase II, HLA-DR2 and HLA-DR4 patients with MS

cycloDENPVVHFFK^91NIVTPRT (head to tail) [cyclic MBP82–98, head to tail cyclized dirucotide]
binding affinity to HLA-DR2 (competition), in words (HLA-DR2; 10-fold, 20-fold and 50-fold excess over AMCA-labeled MBP83–99 (1 μM), 48 h, 150 mM sodium phosphate pH 6.0, 15% acetonitrile, 0.1% Zwittergent-12, HPSEC fluorescence 350/450 nm): reduced affinity compared to its linear counterpart at 10-fold, 20-fold and 50-fold excess, but still with comparable affinity
binding to HLA-DR2, overall statement (HLA-DR2; overall, competition with AMCA-labeled MBP83–99, 48 h, pH 6.0): strong binder with the HLA-DR2 allele; also recorded: binds to HLA-DR2 and HLA-DR4 alleles with considerable affinity; also recorded: higher affinity than MBP82–98 (A^91)
binding affinity to HLA-DR4 (competition), in words (HLA-DR4; 10-fold, 20-fold, 50-fold excess over AMCA-labeled HA306–318 (1 μM), 48 h, 150 mM sodium phosphate pH 6.0, 15% acetonitrile, 0.1% Zwittergent-12, HPSEC fluorescence 350/450 nm, triplicates): considerably lower compared to its linear counterpart and linear APL MBP82–98 (Ala^91)
binding to HLA-DR4, overall statement (HLA-DR4): lower affinity binding to the HLA-DR4 allele; also recorded: binds to HLA-DR2 and HLA-DR4 alleles with considerable affinity

DENPVVHFFA^91NIVTPRT [linear MBP82–98 (Ala^91), linear altered peptide ligand of dirucotide, K91 mutated to Ala]
binding affinity to HLA-DR2 (competition), in words (HLA-DR2; 10-fold and 20-fold excess, AMCA-labeled MBP83–99, 48 h, pH 6.0, HPSEC fluorescence, relative to linear agonist MBP82–98): bound with much lower affinity
binding affinity to HLA-DR2 (competition), in words (HLA-DR2; 50-fold excess, AMCA-labeled MBP83–99, 48 h, pH 6.0, HPSEC fluorescence): comparable to linear agonist MBP82–98 peptide at 50-fold excess
binding to HLA-DR4, overall statement (HLA-DR4): considerable higher affinity than cyclic MBP82–98

DENPVVHFFK^91NIVTPRT [dirucotide, 17-mer linear peptide MBP82–98]
benefit versus placebo ([1]; 612 subjects, ref [17]): did not provide any benefit compared to placebo
primary and secondary endpoints ([1]; 612 subjects, ref [17]): no enhanced primary and secondary endpoints achieved
benefit versus placebo ([1]; relapsing remitting MS and secondary progressive MS, ref [17],[18]): no added benefit was noted compared to the placebo group
T cell responses against MBP82–98 epitope (patients with MS; injected in high concentrations in patients with MS): suppressed T cell responses against MBP82–98 epitope
safety (patients with MS; [4]): safe
time to disease progression (patients with MS; [4]): prolonged the median time to disease progression
time to disease progression (patients with MS; phase II, HLA-DR2 and HLA-DR4 patients with MS, listed as Dirucotide): delayed disease progression
induction of CD4+CD25+Foxp3+ regulatory T cells ([2]; following injection in patients with MS): induce CD4^+CD25^+Foxp3^+ regulatory T cells
number of CD4+CD25+Foxp3+ regulatory T cells ([2]; six weeks and six months after treatment): increase in the number of CD4^+CD25^+Foxp3^+ regulatory T cells
suppression of autoreactive T cells (autoreactive T cells): suppress autoreactive T cells

cyclic PLP139–151: cyclized agonist proteolipid protein (PLP139–151) epitope (CHCLGKWLGHPDK; also: cyclized; UniProt P60202 139-151, looked up, fragment)
disease burden and pathology [3]: low disease burden, and minimal inflammatory, demyelinating, and axonopathic pathology compared to the linear PLP139–151 peptide
